According to ChEMBL document CHEMBL3351431, “Synthesis and evaluation of C2-carbon-linked heterocyclic-5-hydroxy-6-oxo-dihydropyrimidine-4-carboxamides as HIV-1 integrase inhibitors” (Bioorg Med Chem Lett, 2015):
pEC50, pIC50: −log10 of the molar value.

Experiments:
[1] = test system: Human immunodeficiency virus 1; experiment: Antiviral activity against HIV1 infected in cell culture in presence of 45 mg/ml human serum albumin and 10% FBS; format: functional, organism-based
[2] = molecular target: Human immunodeficiency virus type 1 integrase (Human immunodeficiency virus 1, UniProt Q7ZJM1); experiment: Inhibition of HIV-1 integrase strand transfer activity
[3] = test system: Human immunodeficiency virus 1; experiment: Antiviral activity against HIV1 infected in cell culture in presence of 10% FBS; format: functional, organism-based
[4] = Clearance in Sprague-Dawley rat at 1 mg/kg, iv; format: ADME, organism-based; design: dose 1 mg/kg, route intravenous; conditions: in vivo
[5] = Half life in Sprague-Dawley rat at 1 mg/kg, iv; format: ADME, organism-based; design: dose 1 mg/kg, route intravenous; conditions: in vivo
[6] = Volume of distribution at steady state in Sprague-Dawley rat at 1 mg/kg, iv; format: ADME, organism-based; design: dose 1 mg/kg, route intravenous; conditions: in vivo, read-out: Vdss
[7] = Cmax in Sprague-Dawley rat at 5 mg/kg, po; format: ADME, organism-based; design: dose 5 mg/kg, route oral; conditions: in vivo
[8] = Oral bioavailability in Sprague-Dawley rat at 5 mg/kg; format: ADME, organism-based; conditions: in vivo
[9] = Tmax in Sprague-Dawley rat at 5 mg/kg, po; format: ADME, organism-based; design: dose 5 mg/kg, route oral; conditions: in vivo
[10] = AUC in Sprague-Dawley rat at 5 mg/kg, po; format: ADME, organism-based; design: dose 5 mg/kg, route oral; conditions: plasma

Sequence of Human immunodeficiency virus type 1 integrase (Q7ZJM1 whole entry): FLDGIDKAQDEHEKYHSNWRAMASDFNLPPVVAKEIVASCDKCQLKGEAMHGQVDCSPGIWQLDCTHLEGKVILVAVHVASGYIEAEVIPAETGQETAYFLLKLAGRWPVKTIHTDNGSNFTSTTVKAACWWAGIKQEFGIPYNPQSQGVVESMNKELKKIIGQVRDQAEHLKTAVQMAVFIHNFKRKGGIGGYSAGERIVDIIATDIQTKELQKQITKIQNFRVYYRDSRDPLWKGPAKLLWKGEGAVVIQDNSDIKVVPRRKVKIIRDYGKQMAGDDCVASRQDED

SMILES | pEC50 [1] | pIC50 [2] | pEC50 [3] | clearance [4] [mL/min/kg] | half-life [5] [min] | Vd [6] [L/kg] | Cmax [7] [µM] | bioavailability [8] [%] | Tmax [9] [min] | AUC [10] [µM·h]
CN(C)S(=O)(=O)c1cc(F)ccc1CNC(=O)c1nc(C2CCOC2)n(C)c(=O)c1O (racemic) | 7.60 | 8.00 | 8.40 | – | – | – | – | – | – | –
Cn1c(C2CCOCC2)nc(C(=O)NCc2ccc(F)cc2-n2cncn2)c(O)c1=O | 7.74 | 8.22 | 8.00 | – | – | – | – | – | – | –
Cn1c(C2CCOCC2)nc(C(=O)NCc2ccc(F)cc2N2CCN(C(C)(C)C)S2(=O)=O)c(O)c1=O | 8.15 | 7.77 | 8.70 | 41 | 13.2 | 0.61 | – | – | – | –
Cn1c(C2CCOC2)nc(C(=O)NCc2ccc(F)cc2-n2cncn2)c(O)c1=O (racemic) | 7.74 | 8.40 | 8.15 | 47 | 25.2 | 0.98 | – | – | – | –
Cn1ncnc1-c1cc(F)ccc1CNC(=O)c1nc(C2CCOC2)n(C)c(=O)c1O (racemic) | 7.96 | 8.22 | 8.30 | 12 | 30 | 0.36 | – | – | – | –
CN(C)S(=O)(=O)c1cc(F)ccc1CNC(=O)c1nc(C2CCOCC2)n(C)c(=O)c1O | 7.82 | 7.92 | 8.40 | – | – | – | – | – | – | –
Cn1c(C2(C)CCCS2)nc(C(=O)NCc2ccc(F)cc2)c(O)c1=O (racemic) | 6.82 | 8.30 | 7.82 | – | – | – | – | – | – | –
Cc1ncnn1-c1cc(F)ccc1CNC(=O)c1nc(C2CCOC2)n(C)c(=O)c1O (racemic) | 7.74 | 7.92 | 7.85 | 37 | 13.8 | 0.76 | – | – | – | –
Cn1c(C2COCC2O)nc(C(=O)NCc2ccc(F)cc2)c(O)c1=O (racemic) | 6.90 | 8.22 | 7.32 | – | – | – | – | – | – | –
Cn1c(C2CCOC2)nc(C(=O)NCc2ccc(F)cc2S(C)(=O)=O)c(O)c1=O (racemic) | 7.48 | 8.05 | 7.85 | – | – | – | – | – | – | –
Cn1c(C2CCOC2)nc(C(=O)NCc2ccc(F)cc2N2CCN(C(C)(C)C)S2(=O)=O)c(O)c1=O (racemic) | 7.66 | 7.80 | 8.70 | 31 | 14.4 | 0.36 | – | – | – | –
Cn1c(C2CCOC2)nc(C(=O)NCc2ccc(F)cc2N2CCCCS2(=O)=O)c(O)c1=O (racemic) | 7.72 | 8.05 | 8.30 | 6 | 32.4 | 0.2 | 3.51 | 60 | 37.8 | 12.3
CN1C(C)(C)CN(c2cc(F)ccc2CNC(=O)c2nc(C3CCOCC3)n(C)c(=O)c2O)S1(=O)=O | 8.15 | 8.22 | 8.70 | – | – | – | – | – | – | –
Cn1ncnc1-c1cc(F)ccc1CNC(=O)c1nc(C2CCOCC2)n(C)c(=O)c1O | 8.15 | 8.05 | 8.40 | – | – | – | – | – | – | –
Cn1c(-c2ccco2)nc(C(=O)NCc2ccc(F)cc2)c(O)c1=O | 4.84 | 7.68 | 6.37 | – | – | – | – | – | – | –
Cn1c(C2=CCOC2)nc(C(=O)NCc2ccc(F)cc2)c(O)c1=O | 5.75 | 7.72 | 6.69 | – | – | – | – | – | – | –
Cc1cnnn1-c1cc(F)ccc1CNC(=O)c1nc(C2CCOCC2)n(C)c(=O)c1O | 7.74 | 7.89 | 8.10 | – | – | – | – | – | – | –
Cn1c(C2CCOC2)nc(C(=O)NCc2ccc(F)cc2)c(O)c1=O (racemic) | 7.22 | 8.40 | 8.05 | 4.9 | 97.8 | 0.14 | 10.5 | 68 | 40.2 | 33.9
CN1CCN(c2cc(F)ccc2CNC(=O)c2nc(C3CCOC3)n(C)c(=O)c2O)C1=O (racemic) | 7.52 | 8.22 | 8.15 | – | – | – | – | – | – | –
Cc1cnnn1-c1cc(F)ccc1CNC(=O)c1nc(C2CCOC2)n(C)c(=O)c1O (racemic) | 7.55 | 8.00 | 7.89 | – | – | – | – | – | – | –
CSC1COCC1c1nc(C(=O)NCc2ccc(F)cc2)c(O)c(=O)n1C (racemic) | 7.48 | 8.52 | 8.15 | 3.6 | 64.8 | 0.15 | 8.04 | 67 | 100 | 39.5
Cn1c(C2CCOCC2)nc(C(=O)NCc2ccc(F)cc2N2CCCCS2(=O)=O)c(O)c1=O | 7.96 | 7.96 | 8.40 | – | – | – | – | – | – | –
Cn1cnnc1-c1cc(F)ccc1CNC(=O)c1nc(C2CCOC2)n(C)c(=O)c1O (racemic) | 7.57 | 7.74 | 7.55 | – | – | – | – | – | – | –
Cn1c(C2CCOCC2)nc(C(=O)NCc2ccc(F)cc2)c(O)c1=O | 7.55 | 8.30 | 8.22 | 2.6 | 34.8 | 0.12 | – | – | – | –
Cc1ncnn1-c1cc(F)ccc1CNC(=O)c1nc(C2CCOCC2)n(C)c(=O)c1O | 7.85 | 8.10 | 8.05 | – | – | – | – | – | – | –
COCCN1CCN(c2cc(F)ccc2CNC(=O)c2nc(C3CCOC3)n(C)c(=O)c2O)C1=O (racemic) | 7.57 | 8.52 | 8.30 | 15 | 27.6 | 0.44 | – | – | – | –
Cn1c(C2CCOCC2)nc(C(=O)NCc2ccc(F)cc2S(C)(=O)=O)c(O)c1=O | 7.89 | 8.10 | 8.22 | 3.9 | 34.8 | 0.13 | – | – | – | –
Cn1c(C2(C)CCCO2)nc(C(=O)NCc2ccc(F)cc2)c(O)c1=O (racemic) | 6.92 | 8.30 | 8.00 | – | – | – | – | – | – | –
CN1C(C)(C)CN(c2cc(F)ccc2CNC(=O)c2nc(C3CCOC3)n(C)c(=O)c2O)S1(=O)=O (racemic) | 7.66 | 8.00 | 8.70 | – | – | – | – | – | – | –
Cn1c(C2CCCCO2)nc(C(=O)NCc2ccc(F)cc2)c(O)c1=O (racemic) | 6.52 | 8.00 | 7.31 | – | – | – | – | – | – | –
